# Measured values from PubChem BioAssay AID624133 (Broad Institute, 2012).
# Where “and” joins values, the source holds several entries; their conditions need not be identical. Equal entries are not always repeated.
# System: Clone20-Shn3RL cells, Renilla luciferase luminescence, 24 h
# Assay: non-specific 3'UTR reporter inhibition in Clone20-Shn3RL – cell-based, Renilla luciferase, cherry-picked, counter-screen for Shn3 inhibitor project, dose response (AID 624133)
row,SMILES,AC50
1,CC(=O)OC[C@]12CCC(C)=C[C@H]1O[C@@H]1[C@H](O)[C@@H](OC(C)=O)[C@@]2(C)[C@]12CO2,< 0.26 µM
2,CC(=O)OCC12CC(OC(=O)CC(C)C)C(C)=CC1OC1C(O)C(OC(C)=O)C2(C)C12CO2 (centres undefined),< 0.26 µM
3,C[C@H]1[C@@H](OS(=O)(=O)O)C[C@@H]2C[C@H]([C@@H](O)c3cc(=O)[nH]c(=O)[nH]3)NC3=NC[C@H]1N32,3.1 µM
4,CC(=O)OC1C(=O)OCC23CCC4(C)OC4C2OC2CC(OC(=O)C=CC=CC(=O)OCCC1C)C3(C)C21CO1 (centres undefined),< 0.26 µM
5,CC(=O)OC1CC2OC3C=C(C)CCC3(C)C1(C)C21CO1 (centres undefined),3.25 µM
6,CC1=CC2OC3CC4OC(=O)C=CC=CC(C(C)O)OCC(O)C5(C)OC5C(=O)OCC2(CC1O)C4(C)C31CO1 (centres undefined),< 0.26 µM
7,CCN1CCN(Cc2ccc(NC(=O)c3cc(NC(=O)c4cc5cccc(OC)c5o4)cc(OC)c3)cc2C(F)(F)F)CC1,25.1 µM and 9.12 µM
8,CC1=CC2OC3CC4OC(=O)C=CC=CC(=O)OCCC(C)C(O)C(=O)OCC2(CC1O)C4(C)C31CO1 (centres undefined),4.79 µM
9,CC1=CC2OC3CC4OC(=O)C=CC=CC(C(C)O)OCC(O)C(C)CC(=O)OCC2(CC1O)C4(C)C31CO1 (centres undefined),< 0.26 µM
